Measurements published in patent US10028955B2, “FGFR inhibitor for use in the treatment of hypophosphatemic disorders” (Novartis AG, priority 2012, dated 2018).
“Also recorded” adds a separate entry of the source.

Legend:
Type in all cases: in vivo, mouse
Dmp1-null mice = assay: Serum calcium and phosphate after single oral dose in Dmp1-null mice; settings: single oral dose 50 mg/kg, 24 h post-administration
Source text: (§1) FGFR inhibitor treatment induces 1,25(OH)2D3 biosynthesis and alleviates hypocalcemia and hypophosphatemia in Hyp mice. Wild-type C57BL/6 and Hyp (B6.Cg-PhexHyp/J) mice were obtained from The Jackson Laboratory. Dmp1-null mice were generated by Feng et al. (J. Dent. Res. 2003; 82:776-780.). All mice were kept in cages under standard laboratory conditions. Mice were fed on a standard rodent diet with water ad libitum.
For analysis of calcium and phosphate levels mice received a single oral dose of the FGFR inhibitor BGJ398 (50 mg/kg) or vehicle and were studied 24 h post-administration. Phosphate and calcium levels were determined from serum. As for Hyp mice, pharmacological FGFR inhibition led to increased serum calcium and phosphate levels in Dmp1-null mice (FIGS. 2C and D, respectively). Data in FIG. 2 are shown as average with SEM (n≥6). Data were compared by unpaired Student's t test; * p<0.05; ** p<0.01; *** p<0.001; n. s.: not significant.

Hyp mice [1] = assay: Serum 1,25(OH)2D3, calcium and phosphate after single oral dose in wild-type and Hyp mice
Source text: as §1
Wild-type or Hyp mice received a single oral dose of the FGFR inhibitor BGJ398 in its free base form (50 mg/kg) or vehicle and were studied 7 h after administration of the compound. BGJ398 or vehicle only (PEG-300/Glucose 5%, 2:1 mix) was administered by oral gavage. Mice were used at 5-7 weeks of age in the case of single dose administrations. Mice were anesthetized by isoflurane inhalation and blood was collected from the caval vein. Mice were sacrificed by exsanguination and kidney and tibial and femoral bones were obtained. Concentrations of BGJ398 in kidney at 7 h was also determined.
(§2) Serum was separated from whole blood using clot activator centrifugation tubes. 100 μl of serum were used for determination of phosphate and calcium levels using the VetScan diagnostic profiling system. Serum concentrations of 1,25(OH)2D3 were determined using a radio receptor assay kit. FGF23 serum levels were analyzed by an ELISA detecting intact FGF23 (Kainos).
At 24 h post-dosing, single dose treatment with BGJ398 induced elevated serum calcium and phosphate levels in both wild-type and Hyp mice, thus alleviating the severe hypocalcemia and hypophosphatemia observed in control Hyp mice. […] Data in FIGS. 1 A and B is shown as relative levels to the wild-type control group (relative expression of 100) and are given as average with standard errors of the mean (SEM) (n≥6).
Similarly to example 1, wild-type or Hyp mice received a single oral dose of the FGFR inhibitor BGJ398 or vehicle and were studied […] after administration of the compound. Calcium (FIG. 4A) and phosphate (FIG. 4B) levels were determined from serum. Data are shown as average with SEM (n≥3). Data were compared by unpaired Student's t test; * p<0.05; ** p<0.01; *** p<0.001; n. s.: not significant. (C) BGJ398 concentrations in kidney at 7 h and 24 h post-administration. Values are given as average with SEM (n≥5).

[2] = tested on: renal FGF23 target genes Cyp27b1 and Cyp24a1; assay: Renal FGF23 target gene expression (qPCR) after single oral dose in wild-type and Hyp mice; settings: both wild-type and Hyp mice, single oral dose 50 mg/kg, 7 h
Source text: as §1
Wild-type or Hyp mice received a single oral dose of the FGFR inhibitor BGJ398 in its free base form (50 mg/kg) or vehicle and were studied 7 h after administration of the compound. BGJ398 or vehicle only (PEG-300/Glucose 5%, 2:1 mix) was administered by oral gavage. Mice were used at 5-7 weeks of age in the case of single dose administrations. […] Concentrations of BGJ398 in kidney at 7 h was also determined. […]
Gene expression was analyzed by quantitative real-time PCR (qPCR). […] Quantitative real-time PCR was performed in an iQ5 Real-Time PCR Detection System using a qPCR core kit for probe assay and an equivalent of 40 or 80 ng RNA of each sample. […]
FGF23 exerts its hypophosphatemic functions in part by transcriptional regulation of the 1,25(OH)2D3-metabolizing enzymes CYP27B1 and CYP24A1 in the kidney. We therefore monitored renal Cyp27b1 and Cyp24a1 expression upon single dose treatment with BGJ398 in Hyp mice and wild-type littermates.

Hyp mice [3] = assay: Long-term (8 weeks, 3 qw) treatment of Hyp mice: bone radiography, micro-CT, histology/histomorphometry; settings: 50 mg/kg 3 qw for 56 days
Method: Radiographs of femur and tibia were taken ex vivo using a high-resolution radiography system (Faxitron MX-20). μCT measurements were performed ex vivo using a Scanco vivaCT 40 system (voxel size 6 μm; high resolution). For cancellous and cortical bone analyses a fixed threshold of 200 was used to determine the mineralized bone fraction from 50 slices. A Gaussian filter was applied to remove noise (σ=0.7; support=1).
As shown on FIG. 7 long-term FGFR inhibition enhances growth of long bones in Hyp mice. Taken together, these above results illustrate the beneficial effect of pharmacological FGFR inhibition in the context of aberrant FGF23 signaling and indicate a potential alleviation of the bone formation deficiency of Hyp mice. […] On FIG. 7.: Radiographs of femur (FIG. 7A) and tibia (FIG. 7B) from wild-type or Hyp mice treated with the FGFR inhibitor BGJ398 (50 mg/kg) or vehicle 3 qw for 56 days. Quantification of femoral (FIG. 7C) and tibial (FIG. 7D) length. Data are shown as average with SEM (n≥6). Data were compared by unpaired Student's t test; * p<0.05; ** p<0.01; *** p<0.001; n. s.: not significant.
Long-term FGFR inhibition improves cortex integrity in femoral bone of Hyp mice. To determine the effect of FGFR inhibitor treatment on bone structure in more detail, we performed microcomputed tomography (CT) analyses of the femoral cortex (sub growth plate area) from wild-type or Hyp mice treated with the FGFR inhibitor BGJ398 (50 mg/kg) or vehicle 3 qw for 56 days (FIG. 8A). Further relative cortical bone volume was quantified (FIG. 8B) and average cortex thickness determined (FIG. 8C).
Long-term treatment with BGJ398 restores growth plate organization Hyp mice. we also found an ameliorative effect of BGJ398-treatment on growth plate organization in Hyp mice in tibial histological sections (FIG. 9A). […] Mineralized tissue is indicated by white arrows, unmineralized osteoid is visualized by dark grey (indicated by black arrows). Growth plate structure is shown by light grey staining in the central part of the sections (FIG. 9B). Osteoid surface/bone surface and osteoid width (FIG. 9C) determined by histomorphometry in the tibial epiphysis of wild-type or Hyp mice treated with BGJ398 (50 mg/kg) or vehicle 3 qw for 56 days. Data are shown as average with SEM (n≥6). Data were compared by unpaired Student's t test; * p<0.05; ** p<0.01; *** p<0.001. In vehicle-treated Hyp mice the columnar organization and directional growth of chondrocytes was disturbed in contrast to the highly ordered structure in wild-type mice. In addition, mineralization was impaired in control Hyp mice, as indicated by the abundance of unmineralized osteoid.

Hyp mice [4] = assay: Long-term (8 weeks, 3 qw) treatment of Hyp mice: body weight, tail length, serum parameters; settings: 50 mg/kg 3 qw for 56 days
Method: as §2
Long-term FGFR inhibition enhances body weight and tail length development and restores mineral ion homeostasis in Hyp mice. A long-term treatment studies was performed to monitor a potential amelioration of the rickets-like bone phenotypes of the Hyp mouse model. Treatments were performed over a course of 8 weeks. Owing to the persistence of elevated calcium and phosphate levels—extending beyond the clearance of BGJ398 from the kidney (FIG. 4)—mice were treated three times weekly (3 qw) with BGJ398 (50 mg/kg body weight) or vehicle for 56 days and analyzed similarly as explained above. […] Total body weight (FIG. 5B) and tail length gain (FIG. 5D) over the course of the treatment are depicted in FIG. 5 as well. Calcium (FIG. 5E) and phosphate (FIG. 5F) levels at the end of the 8 week treatment were determined from serum 24 h after the last administration and are shown in FIG. 5. Data are shown as average with SEM (n≥6). Data were compared by unpaired Student's t test; * p<0.05; ** p<0.01; *** p<0.001; n. s.: not significant.
Wild-type or Hyp mice were treated again with the FGFR inhibitor BGJ398 (50 mg/kg) or vehicle 3 qw for 56 days and FGF23 (FIG. 6A), parathyroid hormone (PTH) (FIG. 6B) and 1,25(OH)2D3 (FIG. 6C) levels were determined from serum at 24 h after the last dosing. PTH values were determined by separating the serum from whole blood using clot activator centrifugation tubes (Sarstedt). 20 μl of serum were used for determination PTH levels using a mouse PTH ELISA (Immutopics). Data were compared by unpaired Student's t test; * p<0.05; ** p<0.01; *** p<0.001; n. s.: not significant.

FGF23 = FGF23 bone mRNA and serum levels after single oral dose in wild-type and Hyp mice; settings: single oral dose 50 mg/kg, 7 h post-dosing
Method: Kidneys were sampled, total RNA was isolated. For RNA isolation from mouse tibial and femoral bones, epiphyses were cut off and bone marrow was removed by centrifugation at 4° C. Tissue was homogenized using a Precellyis 24 bead homogenizer and RNA was extracted with TRIzol reagent. RNA was purified subsequently by chloroform extraction, isopropanol precipitation and RNeasy Mini kit. For kidney RNA, approximately 60 mg of tissue was homogenized in 1.5 ml RTL buffer (Qiagen) with a rotor-stator homogenizer and RNA was purified with the RNeasy Mini kit. Random hexamer primed cDNA was synthesized with 0.5-2 μg RNA and MultiScribe MuLV reverse transcriptase.
Gene expression was analyzed by quantitative real-time PCR (qPCR). TaqMan Probe-Based Gene Expression assays were used for expression analysis of mouse Cyp27b1 (Mm01165919), Cyp24a1 (Mm00487244) and Gapdh (4352339E). Sequences of primers and FAM/TAMRA-labeled probes (Microsynth) for the detection of mouse Fgf23 were 5′-[…] (forward), 5′-[…] (reverse) and 5′-[…] (probe). Quantitative real-time PCR was performed in an iQ5 Real-Time PCR Detection System using a qPCR core kit for probe assay and an equivalent of 40 or 80 ng RNA of each sample. The data were normalized to Gapdh expression.
as §2
Besides the alleviation of the mineral ion deficiency in the two mouse models for FGF23-related hypophosphatemic rickets, we also noticed a repressive effect of FGFR inhibitor treatment on FGF23 levels in BGJ398-treated Hyp mice. Mice received a single oral dose of the FGFR inhibitor BGJ398 (50 mg/kg) or vehicle and were studied 7 h post-administration. FGF23 bone mRNA (FIG. 3A) and serum (FIG. 3B) levels in wild-type and Hyp mice treated with BGJ398 were determined. […]

[5] = Hyp mice, single oral dose 50 mg/kg, 24 h post-dosing
[6] = both wild-type and Hyp mice, single oral dose 50 mg/kg, 24 h post-dosing, 50 mg/kg
[7] = wild-type or Hyp mice, single oral dose, 48 h after administration
[8] = Hyp mice, 24 h after last administration
[9] = Hyp mice, 24 h after last dosing

## CCN1CCN(c2ccc(Nc3cc(N(C)C(=O)Nc4c(Cl)c(OC)cc(OC)c4Cl)ncn3)cc2)CC1 [BGJ398, 3-(2,6-Dichloro-3,5-dimethoxy-phenyl)-1-{6-[4-(4-ethyl-piperazin-1-yl)-phenylamino]-pyrimid-4-yl}-1-methyl-urea]
Dmp1-null mice
  serum calcium levels: increased
  serum phosphate levels: increased
Hyp mice [1]; [5]
  serum calcium levels compared to vehicle-treated wild-type mice: indistinguishable from vehicle-treated wild-type mice
  serum phosphate concentrations compared to wild-type mice: still significantly lower compared to serum levels of wild-type mice
Hyp mice [1]; both wild-type and Hyp mice, single oral dose 50 mg/kg, 7 h post-dosing
  1,25(OH)2D3 serum levels: strong increase
Hyp mice [1]; [6]
  serum calcium levels: increased; also recorded: elevated
  serum phosphate levels: increased; also recorded: elevated
Hyp mice [1]; [7]
  calcium serum levels: persistent increase
  phosphate serum levels: persistent increase
[2]
  renal Cyp24a1 expression: almost complete loss of Cyp24a1 expression
  renal Cyp27b1 expression: increased Cyp27b1 levels
Hyp mice [3]
  femoral cortex integrity (micro-CT): appeared intact
  mineralization in the epiphyseal bone area adjacent to the growth plate: enhanced mineralization
  primary spongiosa in the metaphyseal sub-growth plate area: formation of primary spongiosa
  widening of femoral and tibial growth plate areas: partially alleviate
Hyp mice [3]; 50 mg/kg
  growth plate organization (tibial sections, Goldner staining): striking re-organization of the growth plate area
Hyp mice [3]; vs vehicle Hyp
  femur length (radiography): significant elongation
  tibia length (radiography): significant elongation
Hyp mice [3]; epiphyseal, metaphyseal and cortical bone compartments
  osteoid width: strong reduction
Hyp mice [3]; femoral cortex, 50 mg/kg
  relative cortical bone volume: increases from pathological values to indistinguishable with normal values; also recorded: indistinguishable from wild-type mice
Hyp mice [3]; femoral cortex, vs vehicle Hyp, 50 mg/kg
  average cortex thickness: significantly increased compared to vehicle-treated Hyp mice
Hyp mice [3]; histomorphometry
  Osteoid surface/bone surface (OS/BS ratio): attenuation of the increased OS/BS ratio
Hyp mice [3]; tibial sections
  columnar stacks of chondrocytes: re-formation
  height of the proliferative zone: increased height
Hyp mice [4]; [8]
  serum calcium levels: complete normalization
  serum phosphate levels: complete normalization
Hyp mice [4]; [9]
  FGF23 serum concentrations: further increase
  PTH levels (serum): normalization
Hyp mice [4]; Hyp mice, vs control Hyp
  tail length development: much stronger increase in tail length compared to control Hyp mice
Hyp mice [4]; Hyp mice, vs vehicle Hyp
  body weight development: stronger increase in body weight compared to the vehicle control group
Hyp mice [4]; Hyp mice, vs vehicle wild-type
  tail length gain: significantly higher compared to vehicle-treated wild-type littermates
Hyp mice [4]; wild-type or Hyp mice, 24 h after last dosing
  1,25(OH)2D3 serum levels: not significantly different among the treatment groups
FGF23; Hyp mice
  reduction of serum FGF23 levels: approximately 50%
FGF23; both Hyp and wild-type mice
  FGF23 expression in bone (mRNA): almost abolished
FGF23; wild-type mice
  serum FGF23 levels: undetectable
